From ChEMBL document CHEMBL1201862, “PubChem BioAssay data set” (2004)
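Compound exposure: 48 hours, 5 concentrations, 96-well plates. GI50 is the concentration that inhibits growth by half.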 Active and inactive are the calls of the source. Cut-off read from the data, not from the text of the source: active = GI50 up to about 1.1 µM and inactive = higher.

Experiments:
Test in all cases: NCI anticancer screen, dose series, 48 h
[1] = tested on: CAKI-1
[2] = tested on: COLO 205
[3] = tested on: HCT-116
[4] = tested on: HT-29
[5] = tested on: IGROV-1
[6] = tested on: KM12
[7] = tested on: NCI-H23
[8] = tested on: OVCAR-4
[9] = tested on: OVCAR-5
[10] = tested on: OVCAR-8
[11] = tested on: RXF 393
[12] = tested on: SF-295
[13] = tested on: SK-MEL-28
[14] = tested on: SK-OV-3
[15] = tested on: TK-10
[16] = tested on: U-251
[17] = tested on: A549
[18] = tested on: DMS-114
[19] = tested on: UO-31
[20] = tested on: XF498

Measured: GI50

Cc1coc2c1C[C@@]1(C)[C@H](CCC[C@@H]1C)[C@H]2O
inactive: [1] 44.5 µM | [2] 41.6 µM | [3] 29.6 µM | [4] 33.3 µM | [5] 19.8 µM | [6] > 100 µM | [7] 36.8 µM | [8] 28.1 µM | [9] 37.2 µM | [10] 35.4 µM | [11] 20.8 µM | [12] 30.9 µM | [13] 29.5 µM | [14] > 100 µM | [15] 54 µM | [16] 42.4 µM

COc1ccc(/C=C/C(=O)C(C)(C)C)cc1OC
inactive: [17] > 100 µM | [1] 78 µM | [2] > 100 µM | [18] 39.7 µM | [4] 62.5 µM | [5] > 100 µM | [6] 43.9 µM | [7] 41.5 µM | [8] 79.6 µM | [9] > 100 µM | [10] > 100 µM | [12] > 100 µM | [13] 74.6 µM | [14] 76.2 µM | [15] > 100 µM | [16] > 100 µM | [19] > 100 µM | [20] 66.8 µM

CCCCCCNC(=O)C(C)C1CCC2(C)C=CC(=O)C(C)=C2C1O (stereo not drawn)
inactive: [17] > 100 µM | [1] > 100 µM | [2] > 100 µM | [18] 45.3 µM | [3] > 100 µM | [4] > 100 µM | [5] > 100 µM | [6] > 88.1 µM | [7] > 94 µM | [8] 96.8 µM | [9] 99.1 µM | [10] > 100 µM | [11] > 100 µM | [12] > 100 µM | [13] > 100 µM | [14] > 100 µM | [16] > 100 µM | [19] > 89.9 µM | [20] > 100 µM

CC1CC(c2ccc([N+](=O)[O-])cc2)=Nc2ccccc2[S+]1[O-] (stereo not drawn)
inactive: [17] 20 µM | [1] 20.9 µM | [2] 18 µM | [18] 18.4 µM | [3] 2.11 µM | [4] 12.9 µM | [5] 15.6 µM | [6] 13 µM | [7] 17.6 µM | [8] 21.6 µM | [9] 26.5 µM | [10] 15.5 µM | [11] 11.1 µM | [12] 21.4 µM | [13] 20 µM | [14] 23 µM | [15] 27 µM | [16] 13.6 µM | [19] 13 µM | [20] 28.7 µM

Cc1c2ccccc2c(CO)c2cc(F)c3ccccc3c12
inactive: [17] 26.6 µM | [1] 25.4 µM | [2] 15.6 µM | [18] 18.1 µM | [3] 19.3 µM | [4] 19.1 µM | [5] 20.7 µM | [6] 18.8 µM | [7] 36.5 µM | [8] 23.4 µM | [9] 28 µM | [10] 19.6 µM | [11] 24.7 µM | [12] 21.9 µM | [13] 44 µM | [14] 29 µM | [15] 37.4 µM | [16] 21.3 µM | [19] 40 µM | [20] 22.1 µM

Cc1ccc(/N=N/C(C2=NC(=O)CS2)c2nc3ccccc3[nH]2)cc1 (stereo not drawn)
inactive: [17] > 100 µM | [1] > 100 µM | [2] > 100 µM | [18] > 100 µM | [3] > 100 µM | [4] > 100 µM | [5] > 100 µM | [6] > 100 µM | [7] > 100 µM | [8] > 100 µM | [9] > 100 µM | [10] > 100 µM | [12] > 100 µM | [13] > 100 µM | [14] > 100 µM | [15] > 100 µM | [16] > 100 µM | [19] > 100 µM | [20] > 100 µM

NC(=O)c1ncn2c1CNC(=O)C2
inactive: [17] > 100 µM | [1] > 100 µM | [2] > 100 µM | [4] > 100 µM | [5] > 100 µM | [6] > 100 µM | [7] > 100 µM | [8] > 100 µM | [9] > 100 µM | [10] > 100 µM | [11] > 100 µM | [12] > 100 µM | [13] > 100 µM | [14] > 100 µM | [15] > 100 µM | [16] > 100 µM | [19] > 100 µM

Nc1nc(Cl)cc(NCCCNc2cc(Cl)nc(N)n2)n1
inactive: [17] > 100 µM | [2] > 100 µM | [18] > 100 µM | [3] > 100 µM | [4] > 100 µM | [5] > 100 µM | [6] > 100 µM | [7] > 100 µM | [8] > 100 µM | [9] > 100 µM | [10] > 100 µM | [11] > 100 µM | [12] > 100 µM | [13] > 100 µM | [14] > 100 µM | [15] > 100 µM | [16] > 100 µM | [19] > 100 µM | [20] > 100 µM

Cc1cn(C2CC(n3cc(Cn4ccc(=O)[nH]c4=O)nn3)C(CO)O2)c(=O)[nH]c1=O (stereo not drawn)
inactive: [17] > 100 µM | [1] > 100 µM | [2] > 100 µM | [3] > 100 µM | [6] > 100 µM | [7] > 100 µM | [8] > 100 µM | [9] > 100 µM | [10] > 100 µM | [11] > 100 µM | [12] > 100 µM | [13] > 100 µM | [14] 49 µM | [15] > 100 µM | [16] > 100 µM | [19] > 100 µM

Cc1ccc2c(O)cc(-c3ccc(F)cc3)nc2n1
inactive: [17] 61.7 µM | [1] 42 µM | [2] 17.2 µM | [4] 30.1 µM | [5] 25.7 µM | [6] 22.4 µM | [7] 41.3 µM | [8] 44.5 µM | [9] 70.1 µM | [10] 51.1 µM | [13] 49 µM | [14] 40.2 µM | [15] 46.6 µM | [19] 59.2 µM
